According to patent publication US20170121268A1, “PPAR MODULATORS” (THE GOVERNING COUNCIL OF THE UNIVERSITY OF TORONTO, priority 2014, published 2017):

Assays:
[1] = target: T1, GAL4-hPPARα (Homo sapiens, UniProt Q07869); experiment: GAL4-hPPARα-UAS-luciferase reporter assay in transiently transfected HEK293 cells; assay type: cell-based; conditions: for EC50 / PPARα agonist profile compared to the full agonist GW7647: dose-response, HEK293 cells; for EC50: read-out: EC50 for PPARα; for PPARα reporter response relative to vehicle: dosed at 50 μM
T1 sequence (Q07869 200-468 limits assumed): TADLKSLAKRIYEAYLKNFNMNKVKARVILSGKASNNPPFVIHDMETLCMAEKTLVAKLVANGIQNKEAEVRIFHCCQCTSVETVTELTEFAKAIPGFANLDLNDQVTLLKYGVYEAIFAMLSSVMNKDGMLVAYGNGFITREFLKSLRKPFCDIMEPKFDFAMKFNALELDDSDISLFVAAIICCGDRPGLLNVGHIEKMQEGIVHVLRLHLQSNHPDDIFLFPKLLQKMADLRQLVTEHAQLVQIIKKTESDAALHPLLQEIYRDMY
Procedure: (§1) HEK293 cells were maintained in Dulbecco's modified Eagle's medium supplemented with 10% fetal bovine serum. Cell transfection was performed in media containing 10% charcoal-stripped fetal bovine serum using calcium phosphate in 96-well plates. The total amount of plasmid DNA (150 ng/well) included 50 ng UAS-Iuc reporter, 20 ng β-galactosidase, 15 ng nuclear receptor (GAL4-hPPARα and GAL4-hPPARγ) and pGEM filler plasmid. Ligands were added at 6 to 8 hours post transfection. Cells harvested 14 to 16 hours later were assayed for luciferase and β-galactosidase activity.

[2] = test system: 3T3-L1 cells; experiment: Oil Red O staining of 3T3-L1 adipocytes after 11 days of differentiation; assay type: cell-based; conditions: 25 μM
Procedure: (§2) 3T3-L1 cells were maintained in Dulbecco's modified Eagle's medium supplemented with 10% fetal calf serum. Adipocyte differentiation was induced in two-days postconfluent cells by treating the cells with 100 μg/ml isobutylmethylxanthine, 1 μM dexamethasone, and 5 μg/ml insulin with 10% FBS in DMEM (Day 0). Rosiglitazone and LDT ligands were added at the start of differentiation. Two days later, cells were switched to the medium containing 5 μg/ml insulin with 10% FBS. After an additional 72 hrs, cells were switched to maintenance media containing 10% FBS in DMEM. Thereafter, the media was changed every 2 days. Cells were harvested on day 11 for RNA expression and Oil Red O was used to estimate lipid accumulation.
Following 11 days of differentiation, cells were washed with PBS twice and fixed in 10% neutral buffered formalin (Sigma) for 1 h at room temperature, followed by two ddH2O and two washes with 60% isopropanol. Cells were then stained with 0.6% (w/v) Oil Red O solution (60% isopropanol, 40% water) for 10 min at room temperature, followed by five washes with ddH2O to remove unbound dye and images were taken with Leica M205 FA microscope.

[3] = test system: PPARγ target genes in 3T3-L1 pre-adipocytes; experiment: 3T3-L1 differentiation assay, expression of PPARγ target genes (QPCR); assay type: cell-based; conditions: 25 μM, day 11
Procedure: as §2
(§3) Total RNA was extracted from cells using RNA STAT-60 (Tel-Test Inc.), followed by DNase I treatment (RNase-free; Roche), and reverse transcribed into cDNA with random hexamers using the High Capacity Reverse Transcription System (ABI; Applied Biosystems). Real-time quantitative PCR (QPCR) analysis was performed on an ABI 7900 in 384-well plates using 2×SYBR Green PCR Master Mix (ABI). Relative mRNA levels were calculated using the comparative Ct method normalized to cyclophilin mRNA.

[4] = target: T2, GAL4-hPPARγ (Homo sapiens, UniProt P37231); experiment: GAL4-hPPARγ-UAS-luciferase reporter assay in transiently transfected HEK293 cells; assay type: cell-based; conditions: for PPARγ agonist profile compared to rosiglitazone control / EC50: dose-response, HEK293 cells; for EC50: read-out: EC50 for PPARγ; for PPARγ reporter response relative to vehicle: dosed at 50 μM
T2 sequence (P37231 238-505 limits assumed): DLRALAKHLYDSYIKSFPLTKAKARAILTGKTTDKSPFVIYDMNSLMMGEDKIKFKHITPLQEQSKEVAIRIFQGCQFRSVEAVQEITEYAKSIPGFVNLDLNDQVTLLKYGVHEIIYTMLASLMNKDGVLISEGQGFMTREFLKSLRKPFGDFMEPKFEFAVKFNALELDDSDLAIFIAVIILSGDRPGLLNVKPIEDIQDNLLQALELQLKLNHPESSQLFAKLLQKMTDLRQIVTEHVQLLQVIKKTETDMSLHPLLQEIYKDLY
Procedure: as §1

[5] = women on drug; cited from earlier work
[6] = test system: PPARα target genes in primary mouse hepatocytes; experiment: Primary hepatocyte assay, expression of PPARα target genes (QPCR); assay type: cell-based; conditions: 50 μM, 24 hrs
Procedure: Mouse primary hepatocytes were isolated by collagenase perfusion as previously described (Patel et al. 2011). Cells were plated onto type I collagen-coated plates at 0.5×10^6 cells per well for 2 hours in attachment media (William's E Media, 10% charcoal stripped FBS, 1× penicillin/streptomycin, and 10 nM insulin), and then switched to overnight media (M199 Media, 5% charcoal stripped FBS, 1× penicillin/streptomycin, and 1 nM insulin). Ligand treatments were carried out on the following day in M199 media without FBS. Cells were harvested 24 hrs later for RNA extraction.
as §3

| EC50 [1] [µM] | PPARγ agonist profile compared to rosiglitazone control [4] | EC50 [4] [µM] | PPARα agonist profile compared to the full agonist GW7647 [1] | SMILES | adipocyte differentiation by Oil red O staining [2] | GLUT4 expression [3] | further results |
| --- | --- | --- | --- | --- | --- | --- | --- |
| – | – | – | – | CN(CCOc1ccc(CC2SC(=O)NC2=O)cc1)c1ccccn1 (centres unmarked) [rosiglitazone] | – | – | rate of distal bone fractures [5]: two-fold increased rate |
| – | – | – | – | CCc1ccc(CCOc2ccc(CC3SC(=O)NC3=O)cc2)nc1 (centres unmarked) [pioglitazone] | – | – | rate of distal bone fractures [5]: two-fold increased rate |
| 0.2 | – | – | – | CCCCCCCCCCCCCCCc1cccc(OC(C)(C)C(=O)O)c1 [LDT409] | comparable to Rosi | augmented | UCP2 expression [3]: upregulated; adiponectin expression [3]: induced to a similar degree as Rosi |
| 3.9 | full agonist profile | 21 | less potent partial PPARα agonists | CCOC(=O)CCCCCCCc1cccc(OCC(=O)OCC)c1 [LDT480, Ethyl 8-(3-(2-ethoxy-2-oxoethoxy)phenyl)octanoate] | – | – | PPARα reporter response relative to vehicle [1]: most active; PPARγ reporter response relative to vehicle [4]: most active |
| 0.9 | full agonist profile | 3.6 | – | CCCCCCCCCCCCCCCc1cccc(OCC(=O)O)c1 [LDT16] | – | – | – |
| 20 | full agonist profile | 14 | less potent partial PPARα agonists | CC(C)(Oc1cccc(CCCCCCCCO)c1)C(=O)O [LDT477, 2-(3-(8-hydroxyoctyl)phenoxy)-2-methylpropanoic acid] | able to induce adipocyte differentiation | upregulated | PPARα reporter response relative to vehicle [1]: most active; PPARγ reporter response relative to vehicle [4]: most active |
| 37 | full agonist profile | 14 | less potent partial PPARα agonists | CCOC(=O)C(C)(C)Oc1cccc(CCCCCCCC(=O)O)c1 [LDT478, 8-(3-((1-ethoxy-2-methyl-1-oxopropan-2-yl)oxy)phenil)octanoic acid] | – | – | – |
| 1.3 | – | – | less potent partial PPARα agonists | CCOC(=O)COc1cccc(CCCCCCCC(=O)O)c1 [LDT298, 8-(3-(2-Ethoxy-2-oxoethoxy)phenyl)octanoic acid] | – | – | increase in activity as compared to Veh in the PPARα activation assay ([1]; FIG. 5A, dose not given): comparable luciferase activation; increase in reporter activity in the PPARγ activation assay ([4]; FIG. 5B, dose not given): comparable luciferase activation |
| 32 | – | – | – | CCCCCCCCCCCCCCCc1cccc(OC)c1C(=O)O [LDT30] | – | – | UCP2 expression [3]: upregulated |
| – | – | – | – | CCOC(=O)CCCCCCCc1cccc(OC(C)(C)C(=O)OCC)c1 [LDT481, Ethyl 8-(3-((1-ethoxy-2-methyl-1-oxopropan-2-yl)oxy)phenyl)octanoate] | able to induce adipocyte differentiation | upregulated | melting point: 39 to 42 °C |
| – | less potent, full agonist profile | – | less potent partial PPARα agonists | CCOC(=O)COc1cccc(CCCCCCCCO)c1 [LDT296, Ethyl 2-(3-(8-hydroxyoctyl)phenoxy)acetate] | – | – | – |

| SMILES | EC50 [1] [µM] | PPARγ agonist profile compared to rosiglitazone control [4] | EC50 [4] [µM] | PPARα agonist profile compared to the full agonist GW7647 [1] | adipocyte differentiation by Oil red O staining [2] | GLUT4 expression [3] | further results |
| --- | --- | --- | --- | --- | --- | --- | --- |
| CCCCCCCCCCCCCCCc1cccc(O)c1C(=O)O [LDT11] | 9 | full agonist profile | 12 | – | less adipogenic compared to Rosi | augmented | adiponectin expression [3]: significantly increased |
| CCCCCCCCCCCCCCCc1cccc(OCC(=O)OCC)c1 [LDT15] | 3.5 | partial PPARγ agonists | 42 | – | less adipogenic compared to Rosi | augmented | UCP2 expression [3]: upregulated; adiponectin expression [3]: induced to a similar degree as Rosi; CD36 expression (hepatocytes) [6]: significantly increased; FABP1 expression [6]: significantly increased; Fgf21 expression [6]: upregulation; PDK4 expression [6]: upregulated |
| CCCCCCCCCCCCCCCc1cccc(OC(C)(C)C(=O)OCC)c1 [LDT408] | – | partial PPARγ agonists | – | – | less adipogenic compared to Rosi | augmented | UCP2 expression [3]: upregulated; adiponectin expression [3]: significantly increased; CD36 expression (hepatocytes) [6]: significantly increased; FABP1 expression [6]: significantly increased; PDK4 expression [6]: upregulated |
| CCCCCCCCCCCCCCCc1cccc(OC(C)=O)c1C(=O)O [LDT13] | 7 | partial PPARγ agonists | 12 | – | – | augmented | – |
